Results reported in patent US9198902B2, “1,4-dihydropyridine-3,5-dicarboxylate derivatives and preparation and use thereof” (Xuanzhu Pharma Co., Ltd., priority 2011, dated 2015).
Structures can show the parent of a compound that is named as a salt.

Key:
[1] = tested on: T-type calcium ion channels; assay: T-type calcium ion channel inhibition, whole cell patch-clamp (electrophysiological method); format: cell-based; details: cerebral cortex nerve cells of suckling mice, room temperature
Text: (§1) 2. Test for L- and T-Type Calcium Ion Channel Inhibitors
(§2) This experiment was assigned to HD Biosciences Corporation (Shanghai) and conducted with an electrophysiological method.
It was done with reference to the method as disclosed by Jung-Ha Lee, et. al., “Identification of T-Type α1H Ca^2+ Channels (Cav3.2) in Major Pelvic Ganglion Neurons”.
(§3) Test samples were weighed accurately and diluted in a 3-fold stepwise dilution so that the final concentrations were as follows:
T-type test: Cerebral cortex nerve cells were separated from suckling mice, and used in the experiment after 7 days of cultivation. The ionic current of a single cell was recorded by applying the whole cell patch-clamp technique at room temperature, wherein the clamp current was −90 mV, and the pulse interval was 10 s. The inward current (the activiation was started from −20 mV) is the T-type calcium current (ICa,T).
(§4) The electrode inner liquid (mM): CsCl 120, TEA-Cl 20, CaCl2 1, EGTA-CsOH 11, Hepes 10, Mg-ATP 5, pH7.3;

[2] = molecular target: L-type calcium ion channels (Cavia porcellus, UniProt O35505); assay: L-type calcium ion channel inhibition, whole cell patch-clamp (electrophysiological method); format: cell-based; details: left ventricle muscle cells of guinea pigs, room temperature
L-type calcium ion channels, sequence (O35505 whole entry): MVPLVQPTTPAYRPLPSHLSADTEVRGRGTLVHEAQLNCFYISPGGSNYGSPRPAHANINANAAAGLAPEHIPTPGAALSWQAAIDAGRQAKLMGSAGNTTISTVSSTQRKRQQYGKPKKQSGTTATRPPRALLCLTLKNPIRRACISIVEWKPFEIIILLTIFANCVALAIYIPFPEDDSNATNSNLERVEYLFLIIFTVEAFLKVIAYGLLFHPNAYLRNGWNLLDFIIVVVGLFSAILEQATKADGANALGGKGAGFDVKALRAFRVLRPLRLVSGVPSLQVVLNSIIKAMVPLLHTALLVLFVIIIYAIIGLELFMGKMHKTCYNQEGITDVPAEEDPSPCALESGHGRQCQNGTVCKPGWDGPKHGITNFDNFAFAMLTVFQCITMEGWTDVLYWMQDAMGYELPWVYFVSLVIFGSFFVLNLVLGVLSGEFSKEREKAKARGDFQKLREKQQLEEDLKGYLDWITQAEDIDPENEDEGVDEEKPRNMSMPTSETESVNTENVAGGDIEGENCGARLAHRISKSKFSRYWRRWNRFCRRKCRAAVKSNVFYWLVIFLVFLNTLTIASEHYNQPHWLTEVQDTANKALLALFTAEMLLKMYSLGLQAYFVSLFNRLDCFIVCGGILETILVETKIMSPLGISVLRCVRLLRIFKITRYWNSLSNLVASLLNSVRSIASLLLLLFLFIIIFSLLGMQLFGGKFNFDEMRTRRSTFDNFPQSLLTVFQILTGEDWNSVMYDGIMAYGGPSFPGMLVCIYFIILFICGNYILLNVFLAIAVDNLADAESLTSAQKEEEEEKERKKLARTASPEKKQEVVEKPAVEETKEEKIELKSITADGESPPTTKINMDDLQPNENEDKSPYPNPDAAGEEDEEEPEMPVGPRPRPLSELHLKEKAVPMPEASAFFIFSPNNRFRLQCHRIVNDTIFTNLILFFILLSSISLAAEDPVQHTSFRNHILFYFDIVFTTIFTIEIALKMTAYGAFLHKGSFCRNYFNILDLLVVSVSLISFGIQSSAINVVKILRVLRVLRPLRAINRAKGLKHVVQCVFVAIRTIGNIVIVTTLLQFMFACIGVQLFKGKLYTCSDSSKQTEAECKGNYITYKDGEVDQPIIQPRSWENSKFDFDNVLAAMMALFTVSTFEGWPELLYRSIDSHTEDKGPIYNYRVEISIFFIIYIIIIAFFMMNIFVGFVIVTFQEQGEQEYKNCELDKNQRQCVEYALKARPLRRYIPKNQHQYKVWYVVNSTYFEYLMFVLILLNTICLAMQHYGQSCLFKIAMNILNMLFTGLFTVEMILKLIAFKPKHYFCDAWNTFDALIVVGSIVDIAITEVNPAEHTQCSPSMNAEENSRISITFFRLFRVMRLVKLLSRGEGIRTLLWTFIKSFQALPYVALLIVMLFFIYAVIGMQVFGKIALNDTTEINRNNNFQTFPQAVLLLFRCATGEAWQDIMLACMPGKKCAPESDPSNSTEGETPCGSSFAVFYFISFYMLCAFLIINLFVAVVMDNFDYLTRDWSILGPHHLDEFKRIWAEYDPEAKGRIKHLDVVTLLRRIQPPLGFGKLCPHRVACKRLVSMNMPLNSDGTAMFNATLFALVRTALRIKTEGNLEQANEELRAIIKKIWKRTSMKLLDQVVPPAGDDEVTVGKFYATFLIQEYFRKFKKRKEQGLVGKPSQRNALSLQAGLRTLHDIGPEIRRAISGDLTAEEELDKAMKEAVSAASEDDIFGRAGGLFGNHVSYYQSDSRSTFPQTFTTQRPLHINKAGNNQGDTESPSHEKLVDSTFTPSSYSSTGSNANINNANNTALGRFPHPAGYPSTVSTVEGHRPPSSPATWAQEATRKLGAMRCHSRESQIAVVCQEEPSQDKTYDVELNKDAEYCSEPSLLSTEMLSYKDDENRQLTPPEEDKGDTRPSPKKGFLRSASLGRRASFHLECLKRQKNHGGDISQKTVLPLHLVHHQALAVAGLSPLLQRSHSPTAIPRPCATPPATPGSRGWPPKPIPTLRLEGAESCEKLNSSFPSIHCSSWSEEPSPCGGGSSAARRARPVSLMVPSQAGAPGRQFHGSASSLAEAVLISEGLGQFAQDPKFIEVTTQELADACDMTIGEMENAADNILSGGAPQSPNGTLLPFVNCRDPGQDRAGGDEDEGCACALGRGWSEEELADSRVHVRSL
Text: as §1, §2
It was done with reference to the method as disclosed by Jung-Ha Lee, et. al., “Identification of T-Type α1H Ca^2+ Channels (Cav3.2) in Major Pelvic Ganglion Neurons”. J Neurophysiol 87:2844-2850, 2002.
as §3
L-type test: Left ventricle muscle cells were separated from guinea pigs. The cells were used in the experiment in eight hours. The ionic current of a single cell was recorded by applying the whole cell patch-clamp technique at room temperature, wherein the clamp current was −80 mV, and the pulse interval was 10 s. The inward current (the activiation was started from 0 mV) is the L-type calcium current (ICa,L).
as §4
The electrode outer liquid (mM): NaCl 135, CsCl 5.4, CaCl2 1.8, MgCl2 1, Hepes 5, glucose 10, pH7.4.

Human Cav3.2 = Human Cav3.2 (Homo sapiens, UniProt O95180); assay: T-type calcium ion channel inhibition, FLIPR method; format: cell-based; details: Human Cav3.2 in stable HEK-293 cells, FLIPR Calcium 4 No-Wash kit
Human Cav3.2, sequence (O95180 whole entry): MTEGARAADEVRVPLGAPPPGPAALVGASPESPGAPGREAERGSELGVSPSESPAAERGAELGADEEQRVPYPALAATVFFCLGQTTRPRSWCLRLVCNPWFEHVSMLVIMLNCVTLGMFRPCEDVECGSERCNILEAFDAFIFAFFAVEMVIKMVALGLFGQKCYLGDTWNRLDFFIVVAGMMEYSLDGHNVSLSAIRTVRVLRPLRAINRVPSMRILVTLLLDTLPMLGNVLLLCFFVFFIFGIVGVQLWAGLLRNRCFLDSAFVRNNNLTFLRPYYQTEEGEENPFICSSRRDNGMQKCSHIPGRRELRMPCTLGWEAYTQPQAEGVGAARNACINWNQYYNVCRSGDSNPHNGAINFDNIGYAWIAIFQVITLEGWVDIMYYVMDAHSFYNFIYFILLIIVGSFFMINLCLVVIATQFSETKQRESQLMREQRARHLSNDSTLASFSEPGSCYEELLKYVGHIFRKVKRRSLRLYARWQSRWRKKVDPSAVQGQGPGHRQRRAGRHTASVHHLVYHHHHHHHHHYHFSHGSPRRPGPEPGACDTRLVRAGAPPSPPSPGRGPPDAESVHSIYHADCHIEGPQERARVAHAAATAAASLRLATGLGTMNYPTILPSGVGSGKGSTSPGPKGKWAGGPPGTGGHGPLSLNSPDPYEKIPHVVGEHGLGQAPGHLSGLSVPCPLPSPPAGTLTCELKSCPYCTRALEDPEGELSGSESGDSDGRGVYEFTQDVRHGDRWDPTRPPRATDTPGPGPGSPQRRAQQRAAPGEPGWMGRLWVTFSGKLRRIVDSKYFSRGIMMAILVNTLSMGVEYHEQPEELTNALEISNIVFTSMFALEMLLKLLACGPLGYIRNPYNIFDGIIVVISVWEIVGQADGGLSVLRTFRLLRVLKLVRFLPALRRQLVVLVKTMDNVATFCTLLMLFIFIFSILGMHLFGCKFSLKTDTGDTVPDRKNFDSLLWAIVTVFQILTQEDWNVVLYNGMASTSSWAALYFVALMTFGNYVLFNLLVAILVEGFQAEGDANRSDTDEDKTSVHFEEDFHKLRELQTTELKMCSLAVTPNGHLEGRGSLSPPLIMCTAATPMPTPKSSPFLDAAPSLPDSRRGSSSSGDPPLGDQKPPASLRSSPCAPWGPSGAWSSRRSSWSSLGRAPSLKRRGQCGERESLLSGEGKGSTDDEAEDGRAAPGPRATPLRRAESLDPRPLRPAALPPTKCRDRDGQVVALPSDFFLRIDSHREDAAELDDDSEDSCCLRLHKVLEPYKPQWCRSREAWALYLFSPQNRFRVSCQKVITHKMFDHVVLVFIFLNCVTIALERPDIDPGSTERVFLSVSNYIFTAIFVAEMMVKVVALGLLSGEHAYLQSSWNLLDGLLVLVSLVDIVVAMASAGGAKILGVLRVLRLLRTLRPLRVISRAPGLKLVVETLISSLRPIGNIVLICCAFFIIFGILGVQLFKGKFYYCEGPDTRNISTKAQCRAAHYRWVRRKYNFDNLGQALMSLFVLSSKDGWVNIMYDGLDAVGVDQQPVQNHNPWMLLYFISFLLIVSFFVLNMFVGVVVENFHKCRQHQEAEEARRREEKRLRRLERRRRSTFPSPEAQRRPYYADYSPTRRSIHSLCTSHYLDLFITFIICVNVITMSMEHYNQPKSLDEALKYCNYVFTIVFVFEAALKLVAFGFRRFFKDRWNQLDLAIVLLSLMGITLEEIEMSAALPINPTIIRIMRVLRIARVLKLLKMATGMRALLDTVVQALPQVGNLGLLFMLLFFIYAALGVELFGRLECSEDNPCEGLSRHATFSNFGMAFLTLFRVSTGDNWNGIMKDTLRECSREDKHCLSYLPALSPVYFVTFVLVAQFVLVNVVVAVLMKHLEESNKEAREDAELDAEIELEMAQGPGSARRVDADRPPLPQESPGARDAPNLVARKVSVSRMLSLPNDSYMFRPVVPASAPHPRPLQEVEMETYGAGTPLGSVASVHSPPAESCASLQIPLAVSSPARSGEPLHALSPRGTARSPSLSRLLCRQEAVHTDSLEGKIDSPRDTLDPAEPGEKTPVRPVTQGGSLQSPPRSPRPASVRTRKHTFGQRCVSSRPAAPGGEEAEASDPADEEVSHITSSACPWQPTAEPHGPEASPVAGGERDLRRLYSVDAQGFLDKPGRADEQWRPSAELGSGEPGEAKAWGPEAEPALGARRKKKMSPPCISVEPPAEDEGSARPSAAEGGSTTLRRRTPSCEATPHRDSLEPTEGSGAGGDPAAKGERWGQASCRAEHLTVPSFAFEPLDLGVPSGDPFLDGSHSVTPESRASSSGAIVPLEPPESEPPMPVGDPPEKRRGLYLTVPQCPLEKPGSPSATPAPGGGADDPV
Experimental: T-type tests for Compound 19 and Compound 20 were assigned to Chan Test Corporation, and conducted according to the FLIPR experimental procedure as follows.
It was done with reference to the method disclosed on page 48 of WO 2009/056934 A1.
Samples were weighed accurately and diluted in a 3-fold stepwise dilution so that the final concentrations were as follows: 100 μM, 30 μM, 10 μM, 3 μM, 1 μM, 0.3 μM, 0.1 μM, 0.03 μM, 0.01 μM, 0.003 μM.
T-type test: Human Cav3.2 was cloned in stable HEK-293 cells, and then the operation was conducted with FLIPR Calcium 4 No-Wash kit. The cell medium was removed. To an HEPES solution free of calcium ion was added 20 μL dye to dye for 30 minutes at a temperature of 37° C. This buffer free of calcium ion included NaCl, 137 mM; KCl, 0.5 mM; MgCl2 mM, 1 mM; HEPES, 10 mM; glucose, 10 mM. The pH value was adjusted to 7.4 with NaOH. After 30 minutes, the buffer was placed at room temperature for 30 minutes. Then 5 μL of compound to be tested, solvent or blank control were added. The compound was formulated with a buffer containing calcium ion, said buffer including KCl, 135 mM; CaCl2, 10.8 mM; MgCl2, 1 mM; HEPES, 10 mM; glucose, 10 mM. The collected fluorescence values were analyzed and the inhibition ratios were calculated.

SHRs = assay: In vivo hypotensive activity in SHRs, DSI implant-type remote blood pressure measurement; set-up: species or system rats; details: male SHRs, 10 mg/kg po, monitored 24 hours
Experimental: The in vivo hypotensive activity assay was conducted according to DSI experimental procedure with reference to page 56 of WO 2009/056934 A1. The agents to be tested, lercanidipine, barnidipine, amlodipine, azelnidipine, efonidipine and manidipine, were accurately weighed. Each agent was dissolved in DMSO. To the resulting solution was added 50% of the corresponding volume of PEG400 so that the final concentration of each agent was 1 mg/ml, and the final concentration of DMSO was 3%. […] Each compound was dissolved in DMSO. […] The compound to be tested, Compound 15, was accurately weighed. This compound was dissolved in DMSO. […] The compound to be tested, Compound 16 (optical activity)+108.34° and Compound 17 (optical activity optical activity)+36.4°, were accurately weighed. […] The test for hypotensive effect: Male SHRs were subjected to an abdominal aorta implantation using an implant, and used in the test after 7-10 days of recovery. The administration was an intragastric administration. One hour before the administration, the measured blood pressure was used as the pre-administration basic blood pressure value. After the administration, SHRs, allowed free access to the diet, were continuously monitored with a DSI implant-type blood pressure remote measurement system for 24 hours.

[3] = tested on: SHRs (spontaneous hypertensive rats); assay: In vivo hypotensive activity in SHRs, tail-pinch method; details: male SHRs, 10 mg/kg po; for Max ΔMAP (mmHg ± SEM): measured 1-24 h after administration
Experimental: The in vivo hypotensive activity assay was conducted according to the tail-pinch method with reference to Folia pharmacol. Japon. 97, 115-126 (1991).
The agents to be tested, lercanidipine, barnidipine, amlodipine, azelnidipine, efonidipine and manidipine, were accurately weighed respectively. Each agent was dissolved in DMSO. To the resulting solution was added 50% of the corresponding volume of PEG400 so that the final concentration of each agent was 1 mg/ml, and the final concentration of DMSO was 3%.
The compounds to be tested, Compound 18, Compound 21, Compound 22, Compound 23, and Compound 26, were accurately weighed respectively. Each compound was dissolved in DMSO. To the resulting solution was added 50% of the corresponding volume of PEG400 so that the final concentration of each compound was 1 mg/ml, and the final concentration of DMSO was 3%.
The compounds to be tested, Compound 19 and Compound 20, were accurately weighed respectively. Each compound was suspended in 0.5% MC so that the final concentration of each compound was 1 mg/ml.
The test for hypotensive effect: Male SHRs (spontaneous hypertensive rats) were randomly allocated into a control group and an administration group. The administration was an intragastric administration. One hour before the administration, the measured blood pressure was used as the pre-administration basic blood pressure value. After the administration, the contractive pressure, the heart rate and the mean arterial pressure of SHRs at six time points, i.e. 1, 2, 4, 6, 8 and 24 hours after the administration, were measured with a Softron BP-98A non-invasive blood pressure instrument respectively.

| Structure (SMILES) | IC50 [1] | IC50 [2] | IC50 (Human Cav3.2) | Max ΔMAP (mmHg ± SEM) (SHRs) | ΔMAP > 20 (mmHg) Duration time of action (SHRs) | ΔMAP > 20 (mmHg) Duration time of action [3] | Max ΔMAP (mmHg ± SEM) [3] |
| --- | --- | --- | --- | --- | --- | --- | --- |
| COC(=O)C1=C(C)NC(C)=C(C(=O)OC2(C)CCN(Cc3ccccc3)C2)C1c1cccc([N+](=O)[O-])c1 (centres unmarked) [Compound 1 hydrochloride, 3-(1-benzyl-3-methylpyrrolidin-3-yl) 5-methyl 2,6-dimethyl-4-(3-nitrophenyl)-1,4-dihydropyridine-3,5-dicarboxylate] | 4.47 µM | – | – | – | – | – | – |
| COC(=O)C1=C(C)NC(C)=C(C(=O)OC2(C)CCN(CCC(c3ccccc3)c3ccccc3)C2)C1c1cccc([N+](=O)[O-])c1 (centres unmarked) [Compound 2 hydrochloride, 3-[1-(3,3-diphenylpropyl)-3-methylpyrrolidin-3-yl]5-methyl 2,6-dimethyl-4-(3-nitrophenyl)-1,4-dihydropyridine-3,5-dicarboxylate] | 3.2 µM | – | – | – | – | – | – |
| COC(=O)C1=C(C)NC(C)=C(C(=O)O[C@@]2(C)CCN(CCC(c3ccccc3)c3ccccc3)C2)[C@H]1c1cccc([N+](=O)[O-])c1 [Compound 16, (S)-3-[(S)-1-(3,3-diphenylpropyl)-3-methylpyrrolidin-3-yl] 5-methyl 2,6-dimethyl-4-(3-nitrophenyl)-1,4-dihydropyridine-3,5-dicarboxylate] | 2.28 µM | 0.59 µM | 1.95 µM | 57 ± 5 mmHg | 11 h | – | – |
| CCOC(=O)C1=C(COCCN)NC(C)=C(C(=O)OC)C1c1ccccc1Cl (centres unmarked) [amlodipine, reference compound] | – | 1.11 µM | > 100 µM | 48 ± 13 mmHg | 16 h | 24 h | 74 ± 8 mmHg |

Second part, led by results:

| IC50 [1] | IC50 [2] | IC50 (Human Cav3.2) | Structure (SMILES) | Max ΔMAP (mmHg ± SEM) (SHRs) | ΔMAP > 20 (mmHg) Duration time of action (SHRs) | ΔMAP > 20 (mmHg) Duration time of action [3] | Max ΔMAP (mmHg ± SEM) [3] |
| --- | --- | --- | --- | --- | --- | --- | --- |
| 8.15 µM | 0.58 µM | 30.8 µM | COC(=O)C1=C(C)NC(C)=C(C(=O)O[C@H]2CCN(Cc3ccccc3)C2)[C@H]1c1cccc([N+](=O)[O-])c1 [barnidipine, reference compound] | 60 ± 6 mmHg | 9 h | 14 h | 81 ± 10 mmHg |
| > 10 µM | 0.84 µM | – | COC(=O)C1=C(C)NC(C)=C(C(=O)OC(C)(C)CN(C)CCC(c2ccccc2)c2ccccc2)C1c1cccc([N+](=O)[O-])c1 (centres unmarked) [lercanidipine, reference compound] | 54 ± 7 mmHg | 14 h | 23 h | 77 ± 15 mmHg |
